Structures can show the parent of a compound that is named as a salt. Where two headings read alike, the source gives them in different places.
What was measured:
squalene synthetase [1] = biological target: T1, squalene synthetase (Rattus norvegicus, UniProt Q02769); experiment: Squalene synthetase inhibitory activity, rat enzyme (rat liver microsome fraction); format: biochemical; settings: 5 μM [1-3H]farnesylpyrophosphoric acid, pH 7.4, 37° C., 45 minutes
T1 construct: from tissue; host or cells: liver of male SD rats (microsome fraction)
T1 sequence (Q02769 1-416): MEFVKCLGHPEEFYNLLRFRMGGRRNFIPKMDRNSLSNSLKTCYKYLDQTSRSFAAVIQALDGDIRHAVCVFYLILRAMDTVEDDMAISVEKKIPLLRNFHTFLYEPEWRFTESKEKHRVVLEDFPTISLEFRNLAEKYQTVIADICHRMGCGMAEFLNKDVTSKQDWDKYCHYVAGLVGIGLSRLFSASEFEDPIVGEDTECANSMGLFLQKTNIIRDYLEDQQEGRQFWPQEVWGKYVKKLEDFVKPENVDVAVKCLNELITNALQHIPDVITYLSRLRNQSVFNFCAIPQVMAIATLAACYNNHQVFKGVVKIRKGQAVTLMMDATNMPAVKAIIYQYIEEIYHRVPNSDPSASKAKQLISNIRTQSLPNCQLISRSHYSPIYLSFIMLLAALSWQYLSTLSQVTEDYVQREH
Protocol: (§1) Squalene synthetase inhibitory activity and cholesterol biosynthesis inhibitory activity of the compounds used in the present invention were determined by the following method.
(§2) Determination of squalene synthetase inhibitory activity
(§3) The squalene synthetase inhibitory activity was determined as follows by using the enzyme solutions shown in Experiments 1 and 2 below.
(§4) Each enzyme solution (Protein: 0.8 μg) prepared in Experiments 1 and 2 was added to a solution (total amount: 50 μl) containing 5 μM[1-^3 H]farnesylpyrophosphoric acid (Specific activity 25 μCi/μmole), 1 mM NADPH, 5 mM MgCl2, 6 mM glutathione, 100 mM potassium phosphate buffer (pH 7.4) and a drug to be tested (which was added as a solution thereof in water or DMSO). The mixture was allowed to react at 37° C. for 45 minutes. A mixture (150 μl) of chloroform and methanol (1:2) was added to stop the reaction. Then, chloroform (50 μl) and 3N sodium hydroxide solution (50 μl) were added. The chloroform layer (under layer, 50 μl) containing the reaction products in which the major component was squalene was mixed with toluene liquid scintillator (3 ml). The radioactivity was measured with a liquid scintillation counter.
(§5) The squalene synthetase inhibitory activity is indicated by the concentration (IC50, molarity(M)) which inhibits the radioactivity incorporated into the chloroform layer by 50%.
Preparation of rat enzyme
SD-Male rats (6 weeks old) were bled to death followed by removal of liver. The liver (ca. 10 g) was washed with ice-cooled physiological saline, homogenized in an ice-cooled buffer solution (15 ml) [100 mM potassium phosphate (pH 7.4), 15 mM nicotinamide, 2 mM MgCl2 ] and centrifuged at 10,000×g for 20 minutes (4° C.). The resulting supernatant was further centrifuged at 105,000×g for 90 minutes (4° C.). Then, the deposit was suspended in an ice-cooled 100 mM potassium phosphate buffer solution (pH 7.4) and centrifuged at 105,000×g for 90 minutes (4° C.) again. The deposit (microsome fraction) thus obtained was suspended in an ice-cooled 100 mM potassium phosphate buffer solution (pH 7.4) so that the protein concentration became about 40 mg/ml (measured with BCA Protein Assay Kit (Pias)), and the suspension was used as the enzyme solution.

squalene synthetase [2] = biological target: T2, squalene synthetase (Homo sapiens, UniProt P37268); experiment: Squalene synthetase inhibitory activity, human enzyme (HepG2 microsome fraction); format: biochemical
T2 construct: From the resulting sonicate, microsome fraction was obtained according to the same manner as that described in Experiment 1; endogenous in cells; host or cells: HepG2 human hepatoma cells (microsome fraction)
T2 sequence (P37268 1-417): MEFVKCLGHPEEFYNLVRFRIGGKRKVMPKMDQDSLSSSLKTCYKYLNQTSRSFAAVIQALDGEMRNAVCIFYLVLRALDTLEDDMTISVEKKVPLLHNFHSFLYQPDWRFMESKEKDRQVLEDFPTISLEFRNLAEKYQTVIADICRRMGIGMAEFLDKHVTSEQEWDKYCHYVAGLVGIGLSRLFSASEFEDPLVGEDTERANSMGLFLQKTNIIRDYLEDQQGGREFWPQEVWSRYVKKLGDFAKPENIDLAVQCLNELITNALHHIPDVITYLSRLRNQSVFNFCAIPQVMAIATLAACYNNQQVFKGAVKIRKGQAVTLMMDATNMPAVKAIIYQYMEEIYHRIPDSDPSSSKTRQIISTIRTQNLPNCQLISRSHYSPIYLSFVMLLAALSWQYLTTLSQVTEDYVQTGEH
Protocol: as §1, §2, §3, §4, §5
Preparation of human enzyme
Cultivation was carried out on Dulbecco modified Eagle medium containing 10% bovine fetal serum in the presence of 5% CO2 at 37° C. The human hepatoma cells HepG2 (ca. 1×10^9 cells) were suspended in an ice-cooled buffer solution (10 ml) [100 mM potassium phosphate (pH 7.4), 30 mM nicotinamide, 2.5 mM MgCl2 ], and the cells were crushed by ultrasonication (30 seconds, twice). From the resulting sonicate, microsome fraction was obtained according to the same manner as that described in Experiment 1. This microsome fraction was suspended in an ice-cooled 100 mM potassium phosphate buffer solution (pH 7.4) so that the protein concentration became about 4 mg/ml, and this suspension was used as the enzyme liquid.

[3] = read-out: IC50, squalene synthetase inhibitory activity, Rat enzyme
[4] = human hepatoma HepG2 microsome fraction, 5 μM [1-3H]farnesylpyrophosphoric acid, pH 7.4, 37° C., 45 minutes, read-out: IC50, squalene synthetase inhibitory activity, Human enzyme
[5] = IC50, squalene synthetase inhibitory activity, Rat enzyme

SMILES | IC50 (squalene synthetase [1]; [3]) | IC50 (squalene synthetase [2]; [4]) | IC50 (squalene synthetase [1]; [5]) | IC50 (squalene synthetase [2])
CC(C)CCCC(C)CCCC(C)CCC(P(=O)(O)O)P(=O)(O)O (centres unmarked) [Compound No. 108, disodium 4,8,12-trimethyltridecylidene-1,1-bisphosphonate] | 23 nM | 44 nM | – | –
O=P(O)(O)C(O)(CCCCCSc1ccccn1)P(=O)(O)O [Compound No. 109, trisodium 1-hydroxy-6-(2-pyridylthio)hexane-1,1-bisphosphonate] | 1300 nM | 5800 nM | – | –
O=P(O)(O)C(NCCCCNc1ccccc1)P(=O)(O)O [Compound No. 110, 4-(phenylamino)butylaminomethylene-1,1-bisphosphonic acid hydrochloride] | 44 nM | 61 nM | – | –
CCOP(=O)(O)C(NC/C=C(\C)CC/C=C(\C)CCC=C(C)C)P(=O)(O)O (centres unmarked) [Compound No. 111, (E,E)-farnesylaminomethylenebisphosphonic acid monoethyl ester monosodium salt] | – | – | 19 nM | 22 nM
CCOP(=O)(O)C(NCCCCCCSc1ccccc1)P(=O)(O)O (centres unmarked) [Compound No. 113, 6-(phenylthio)hexylaminomethylenebisphosphonic acid monoethyl ester monosodium salt] | – | – | 15 nM | 9.8 nM
O=P(O)(O)C(NCCCCSc1ccccc1)P(=O)(O)O [compound 1] | 18 nM | 8.9 nM | – | –
O=P(O)(O)C(NCCCCSc1ccccn1)P(=O)(O)O [compound 2] | 97 nM | 180 nM | – | –
O=P(O)(O)C(NCCCCSc1ccncc1)P(=O)(O)O [compound 3] | 210 nM | 300 nM | – | –
CCSCCCCNC(P(=O)(O)O)P(=O)(O)O [compound 4] | 370 nM | 1300 nM | – | –
CC(C)(C)SCCCCNC(P(=O)(O)O)P(=O)(O)O [compound 5] | 760 nM | 9100 nM | – | –
O=P(O)(O)C(NCCCCCSc1ccccc1)P(=O)(O)O [compound 6] | 5.7 nM | – | – | –
O=P(O)(O)C(NCCCCCSC1CCCCC1)P(=O)(O)O [compound 7] | 19 nM | 18 nM | – | –
CCSCCCCCNC(P(=O)(O)O)P(=O)(O)O [compound 8] | 68 nM | 110 nM | – | –
O=P(O)(O)C(NCCCC[S+]([O-])c1ccccc1)P(=O)(O)O (centres unmarked) [compound 9] | 9 nM | 6.3 nM | – | –
O=P(O)(O)C(NCCCCCOc1ccccc1)P(=O)(O)O [compound 10] | 8.1 nM | 5.2 nM | – | –
O=P(O)(O)C(NCCCCCCSc1ccccc1)P(=O)(O)O [compound 11] | 3.6 nM | 1.5 nM | – | –
O=P(O)(O)C(NCCCCS(=O)(=O)c1ccccc1)P(=O)(O)O [compound 12] | 6400 nM | – | – | –
O=P(O)(O)C(NCCCCOc1ccc2c(c1)OCO2)P(=O)(O)O [compound 13] | 19 nM | 14 nM | – | –
CCOP(=O)(OCC)C(NCCCCCc1ccccc1)P(=O)(OCC)OCC [compound 14] | 560 nM | 450 nM | – | –
CCOP(=O)(OCC)C(NCCCCCSC1CCCCC1)P(=O)(OCC)OCC [compound 15] | 4100 nM | – | – | –
O=P(O)(O)C(NCCSCCc1ccccc1)P(=O)(O)O [compound 16] | 20 nM | 9.7 nM | – | –
O=P(O)(O)C(NCCCSCc1ccccc1)P(=O)(O)O [compound 17] | 18 nM | 12 nM | – | –

SMILES | IC50 (squalene synthetase [1]; [3]) | IC50 (squalene synthetase [2]; [4]) | IC50 (squalene synthetase [1]; [5]) | IC50 (squalene synthetase [2])
CCOP(=O)(OCC)C(NCCSCCc1ccccc1)P(=O)(OCC)OCC [compound 18] | 790 nM | 610 nM | – | –
CCOP(=O)(OCC)C(NCCCCCCSc1ccccc1)P(=O)(OCC)OCC [compound 19] | 7500 nM | 6900 nM | – | –
O=P(O)(O)C(NC1CCCCCC1)P(=O)(O)O [compound 20] | 940 nM | 6400 nM | – | –
O=P(O)(O)C(CCCc1ccccc1)P(=O)(O)O [compound 21, 4-phenylbutylidene-1,1-bisphosphonic acid] | 5500 nM | – | – | –
CCOP(=O)(OCC)C(NCCCCCCSc1ccc(Cl)cc1)P(=O)(OCC)OCC [compound 28] | 6200 nM | 3200 nM | – | –
O=P(O)(O)C(NCCCCCC[S+]([O-])c1ccccc1)P(=O)(O)O (centres unmarked) [compound 60, disodium 6-(phenylsulfinyl)hexylaminomethylenebisphosphonate] | 6 nM | 3.1 nM | – | –
O=P(O)(O)C(NCCCCCCCCCCSc1ccccc1)P(=O)(O)O [compound 61] | 0.58 nM | 0.47 nM | – | –
CC(C)CCCC(C)CCCC(C)CCNC(P(=O)(O)O)P(=O)(O)O (centres unmarked) [compound 63] | 4.3 nM | 2.2 nM | – | –
O=P(O)(O)C(NCCCCCC[S+]([O-])c1ccc2ccccc2c1)P(=O)(O)O (centres unmarked) [compound 66] | 4.7 nM | 4 nM | – | –
O=P(O)(O)C(NCCCCCCCCCCC[S+]([O-])c1ccccc1)P(=O)(O)O (centres unmarked) [compound 72] | 4.5 nM | 4.6 nM | – | –
O=P(O)(O)C(NCCCCCCCCCSc1ncccn1)P(=O)(O)O [compound 79] | 8.8 nM | 7 nM | – | –
O=P(O)(O)C(NCCCCCCSc1nnc2ccccn12)P(=O)(O)O [compound 81] | 200 nM | 1800 nM | – | –
O=P(O)(O)C(NCCCCCCSc1nc2ccccc2s1)P(=O)(O)O [compound 83] | 4.3 nM | 8.4 nM | – | –
CC(C)=CCC/C(C)=C/CNC(P(=O)(O)O)P(=O)(O)O [compound 86] | 27 nM | 35 nM | – | –
O=P(O)(O)C(NCCCCCSc1ccccc1)P(=O)(O)O [compound 88] | 13 nM | – | – | –
O=P(O)(O)C(NCCCCCCCCCCCCSc1ccccc1)P(=O)(O)O [compound 89, monosodium 12-(phenylthio)dodecylaminomethylenebisphosphonate] | 8.1 nM | – | – | –
CC(C)=CCC/C(C)=C/CC/C(C)=C/CNC(P(=O)(O)O)P(=O)(O)O [compound 93] | 19 nM | 20 nM | – | –
CC(C)=CCC/C(C)=C/CC/C(C)=C/CNC(P(=O)(O)O)P(=O)(O)O [compound 99] | 6.9 nM | 6.7 nM | – | –
O=P(O)(O)C(NCCCCCCCCCSc1ncccn1)P(=O)(O)O [compound 100] | 12 nM | 12 nM | – | –
O=P(O)(O)C(NCCCCCCCCCCSc1ncccn1)P(=O)(O)O [compound 101] | 7.8 nM | 6.1 nM | – | –
O=P(O)(O)C(NCCCCCCCCCCCSc1ccccc1)P(=O)(O)O [compound 102, trisodium 11-(phenylthio)undecylaminomethylenebisphosphonate] | 3.1 nM | 3 nM | – | –
